Measurements as given in patent US9981945B2, “Pyrimidine derivatives as CFTR modulators” (NuBridge BioSciences, priority 2015, dated 2018).
Where a name gives a salt, the structure may show the parent alone.

biological target: T1, ΔF508 mutant CFTR (Homo sapiens, UniProt P13569, DEL508-508); test: Fluorescence (YFP halide quenching) assay of ΔF508 mutant CFTR activity in FRT cells; type: cell-based; design: key: fold of mean activity with forskolin alone (I− quenching rate); conditions: FRT cells expressing ΔF508-CFTR and YFP-H148Q/I152L, rescued at 27° C. 20-24 h; forskolin 20 μM + test compound 20 μM for 20 min; I− influx rate normalized to forskolin alone
T1 construct: expressed in transfected cells; host or cells: Fischer rat thyroid (FRT) cells
Text: The ΔF508 mutant CFTR activities of the CFTR modulators are detected using the Fluorescence Assay developed by Pedemonte (Pedemonte N., et al., Antihypertensive 1,4-dihydropyridines as correctors of the cystic fibrosis transmembrane conductance regulator channel gating defect caused by cystic fibrosis mutations, Mol. Pharmacol., 2005, 68, 1736-1746).
Fischer rat thyroid (FRT) cells, stably transfected with ΔF508 were retransfected with the YFP-H148Q/I152L fluorescent protein. The cells were plated (100,000 cells/well) on black 96-well microplates with clear plastic bottom (Corning Life Sciences, Acton, Mass.).
The 96-well microplates containing FRT cells expressing F508-CFTR and the halide-sensitive YFP were incubated at 27° C. for 20 to 24 h to allow rescue of the mutant protein to the plasma membrane. After incubation, cells were washed with PBS (containing 137 mM NaCl, 2.7 mM KCl, 8.1 mM Na2HPO4, 1.5 mM KH2PO4, 1 mM CaCl2, and 0.5 mM MgCl2) and stimulated for 20 min with forskolin (20 μM) and test compounds (20 μM) in a final volume of 60 μl. Microplates were then transferred to a microplate reader for CFTR activity determination. Each assay consisted of a continuous 14-s fluorescence reading (5 points per second) with 2 s before and 12 s after injection of 165 μl of an iodide-containing solution (PBS with Cl^− replaced by I^−). Final iodide concentration in the wells was 100 mM. […] To determine I^− influx rate, the final 11 s of the data for each well were fitted with an exponential function to extrapolate initial slope. CFTR activity was determined by measuring the rate of fluorescence quenching induced by extracellular addition of I^−. Data are normalized to the mean activity measured in the presence of forskolin alone.

T1 sequence (P13569 with tags, fused parts or gaps DEL508-508): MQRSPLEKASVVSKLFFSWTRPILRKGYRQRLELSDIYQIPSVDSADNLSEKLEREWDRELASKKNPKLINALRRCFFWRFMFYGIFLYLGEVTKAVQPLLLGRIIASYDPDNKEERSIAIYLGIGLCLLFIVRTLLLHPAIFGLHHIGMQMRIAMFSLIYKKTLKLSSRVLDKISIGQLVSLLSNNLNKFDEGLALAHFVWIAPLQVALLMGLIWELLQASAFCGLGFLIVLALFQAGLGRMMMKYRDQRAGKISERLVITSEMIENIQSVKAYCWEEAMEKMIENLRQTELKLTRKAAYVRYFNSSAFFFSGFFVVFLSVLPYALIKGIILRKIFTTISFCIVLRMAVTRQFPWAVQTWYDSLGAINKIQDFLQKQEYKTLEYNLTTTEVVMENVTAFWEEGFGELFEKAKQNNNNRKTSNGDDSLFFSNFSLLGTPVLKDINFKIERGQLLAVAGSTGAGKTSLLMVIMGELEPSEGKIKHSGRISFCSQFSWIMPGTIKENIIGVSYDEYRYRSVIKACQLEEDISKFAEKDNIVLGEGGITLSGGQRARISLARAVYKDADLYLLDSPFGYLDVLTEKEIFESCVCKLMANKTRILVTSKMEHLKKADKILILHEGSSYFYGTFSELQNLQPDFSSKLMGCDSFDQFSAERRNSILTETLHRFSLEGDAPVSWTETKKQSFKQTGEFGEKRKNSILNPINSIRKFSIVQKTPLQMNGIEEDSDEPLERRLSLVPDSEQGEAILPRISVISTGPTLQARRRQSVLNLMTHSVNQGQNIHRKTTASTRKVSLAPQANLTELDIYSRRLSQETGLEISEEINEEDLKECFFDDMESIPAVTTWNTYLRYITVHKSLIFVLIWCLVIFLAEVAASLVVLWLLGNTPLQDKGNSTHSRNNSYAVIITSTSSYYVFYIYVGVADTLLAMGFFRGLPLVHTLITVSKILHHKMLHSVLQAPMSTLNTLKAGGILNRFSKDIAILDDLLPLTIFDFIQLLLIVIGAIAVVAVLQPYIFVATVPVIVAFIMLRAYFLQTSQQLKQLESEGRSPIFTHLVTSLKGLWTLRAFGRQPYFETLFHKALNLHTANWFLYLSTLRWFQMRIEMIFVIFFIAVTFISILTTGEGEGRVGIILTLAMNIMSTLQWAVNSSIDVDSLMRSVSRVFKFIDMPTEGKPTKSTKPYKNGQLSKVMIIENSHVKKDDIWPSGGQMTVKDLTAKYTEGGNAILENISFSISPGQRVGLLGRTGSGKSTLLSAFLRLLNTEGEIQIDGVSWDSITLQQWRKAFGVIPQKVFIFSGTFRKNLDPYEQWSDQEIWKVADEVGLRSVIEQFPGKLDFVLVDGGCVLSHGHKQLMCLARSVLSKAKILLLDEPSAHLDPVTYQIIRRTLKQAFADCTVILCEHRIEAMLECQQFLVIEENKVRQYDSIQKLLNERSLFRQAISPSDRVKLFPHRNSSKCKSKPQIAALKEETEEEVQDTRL

Row | SMILES | CFTR Activity
1 | Cl.O=C(Nc1cncnc1OCC1CCNCC1)c1ccc(F)c(-c2c(F)cccc2F)n1 [Example 1, 6-(2,6-difluorophenyl)-5-fluoro-N-(4-(piperidin-4-ylmethoxy)pyrimidin-5-yl)picolinamide hydrochloride] | 1.2
2 | Cl.O=C(Nc1cncnc1OCC1CNC1)c1ccc(F)c(-c2c(F)cccc2F)n1 [Example 2, N-(4-(azetidin-3-ylmethoxy)pyrimidin-5-yl)-6-(2,6-difluorophenyl)-5-fluoropicolinamide hydrochloride] | 0.5
3 | Cl.O=C(Nc1cncnc1OC1CCNCC1)c1ccc(F)c(-c2c(F)cccc2F)n1 [Example 3, 6-(2,6-difluorophenyl)-5-fluoro-N-(4-(piperidin-4-yloxy)pyrimidin-5-yl)picolinamide hydrochloride] | 1.3
4 | Cl.O=C(Nc1cncnc1OC1CCNC1)c1ccc(F)c(-c2c(F)cccc2F)n1 (centres unmarked) [Example 4, 6-(2,6-difluorophenyl)-5-fluoro-N-(4-(pyrrolidin-3-yloxy)pyrimidin-5-yl)picolinamide hydrochloride] | 0.7
5 | Cl.O=C(Nc1cncnc1OC1CCCNC1)c1ccc(F)c(-c2c(F)cccc2F)n1 (centres unmarked) [Example 5, 6-(2,6-difluorophenyl)-5-fluoro-N-(4-(piperidin-3-yloxy)pyrimidin-5-yl)picolinamide hydrochloride] | 0.6
6 | Cl.O=C(Nc1cncnc1OC1CCCNCC1)c1ccc(F)c(-c2c(F)cccc2F)n1 (centres unmarked) [Example 6, N-(4-(azepan-4-yloxy)pyrimidin-5-yl)-6-(2,6-difluorophenyl)-5-fluoropicolinamide hydrochloride] | 1.9
7 | Cl.O=C(Nc1cncnc1OCC1CCCNC1)c1ccc(F)c(-c2c(F)cccc2F)n1 (centres unmarked) [Example 7, 6-(2,6-difluorophenyl)-5-fluoro-N-(4-(piperidin-3-ylmethoxy)pyrimidin-5-yl)picolinamide hydrochloride] | 0.5
8 | Cl.O=C(Nc1cncnc1OCC1CCNC1)c1ccc(F)c(-c2c(F)cccc2F)n1 (centres unmarked) [Example 8, 6-(2,6-difluorophenyl)-5-fluoro-N-(4-(pyrrolidin-3-ylmethoxy)pyrimidin-5-yl)picolinamide hydrochloride] | 0.6
9 | Cl.O=C(Nc1cncnc1OC1CNC1)c1ccc(F)c(-c2c(F)cccc2F)n1 [Example 9, N-(4-(azetidin-3-yloxy)pyrimidin-5-yl)-6-(2,6-difluorophenyl)-5-fluoropicolinamide hydrochloride] | 0.4
10 | Cl.NC1CCC(Oc2ncncc2NC(=O)c2ccc(F)c(-c3c(F)cccc3F)n2)CC1 (centres unmarked) [Example 10, N-(4-(((1r,4r)-4-aminocyclohexyl)oxy)pyrimidin-5-yl)-6-(2,6-difluorophenyl)-5-fluoropicolinamide hydrochloride] | 1.9
11 | Cl.NC1CCCC(Oc2ncncc2NC(=O)c2ccc(F)c(-c3c(F)cccc3F)n2)C1 (centres unmarked) [Example 11, N-(4-((3-aminocyclohexyl)oxy)pyrimidin-5-yl)-6-(2,6-difluorophenyl)-5-fluoropicolinamide hydrochloride] | 3.0
12 | Cl.NCCCOc1ncncc1NC(=O)c1ccc(F)c(-c2c(F)cccc2F)n1 [Example 12, N-(4-(3-aminopropoxy)pyrimidin-5-yl)-6-(2,6-difluorophenyl)-5-fluoropicolinamide hydrochloride] | 0.7
13 | CNCCCOc1ncncc1NC(=O)c1ccc(F)c(-c2c(F)cccc2F)n1.Cl [Example 13, 6-(2,6-difluorophenyl)-5-fluoro-N-(4-(3-(methylamino)propoxy)pyrimidin-5-yl)picolinamide hydrochloride] | 0.5
14 | CN(C)CCCOc1ncncc1NC(=O)c1ccc(F)c(-c2c(F)cccc2F)n1.Cl [Example 14, 6-(2,6-difluorophenyl)-N-(4-(3-(dimethylamino)propoxy)pyrimidin-5-yl)-5-fluoropicolinamide hydrochloride] | 0.2
15 | Cl.NCCCCOc1ncncc1NC(=O)c1ccc(F)c(-c2c(F)cccc2F)n1 [Example 15, N-(4-(4-aminobutoxy)pyrimidin-5-yl)-6-(2,6-difluorophenyl)-5-fluoropicolinamide hydrochloride] | 0.5
16 | CNCCCCOc1ncncc1NC(=O)c1ccc(F)c(-c2c(F)cccc2F)n1.Cl [Example 16, 6-(2,6-difluorophenyl)-5-fluoro-N-(4-(4-(methylamino)butoxy)pyrimidin-5-yl)picolinamide hydrochloride] | 0.5
17 | CC(O)CCOc1ncncc1NC(=O)c1ccc(F)c(-c2c(F)cccc2F)n1 (centres unmarked) [Example 18, 6-(2,6-difluorophenyl)-5-fluoro-N-(4-(3-hydroxybutoxy)pyrimidin-5-yl)picolinamide] | 0.2
18 | O=C(Nc1cncnc1OCCCCO)c1ccc(F)c(-c2c(F)cccc2F)n1 [Example 19, 6-(2,6-difluorophenyl)-5-fluoro-N-(4-(4-hydroxybutoxy)pyrimidin-5-yl)picolinamide] | 0.3
19 | O=C(Nc1cncnc1OCCC(O)CO)c1ccc(F)c(-c2c(F)cccc2F)n1 (centres unmarked) [Example 21, 6-(2,6-difluorophenyl)-N-(4-(3,4-dihydroxybutoxy)pyrimidin-5-yl)-5-fluoropicolinamide] | 0.05

Next, values leading:

Row | CFTR Activity | SMILES
20 | 0.2 | O=C(Nc1cncnc1OCCCO)c1ccc(F)c(-c2c(F)cccc2F)n1 [Example 17, 6-(2,6-difluorophenyl)-5-fluoro-N-(4-(3-hydroxypropoxy)pyrimidin-5-yl)picolinamide]
21 | 0.1 | CC(C)(O)CCCOc1ncncc1NC(=O)c1ccc(F)c(-c2c(F)cccc2F)n1 [Example 20, 6-(2,6-difluorophenyl)-5-fluoro-N-(4-((4-hydroxy-4-methylpentyl)oxy)pyrimidin-5-yl)picolinamide]
22 | 0.1 | O=C(Nc1cncnc1OCC1CCOCC1)c1ccc(F)c(-c2c(F)cccc2F)n1 [Example 22, 6-(2,6-difluorophenyl)-5-fluoro-N-(4-((tetrahydro-2H-pyran-4-yl)methoxy)pyrimidin-5-yl)picolinamide]
23 | 2.2 | Cl.Nc1cc(F)c(-c2c(F)cccc2F)nc1C(=O)Nc1cncnc1OCC1CCNCC1 [Example 23, 3-amino-6-(2,6-difluorophenyl)-5-fluoro-N-(4-(piperidin-4-ylmethoxy)pyrimidin-5-yl)picolinamide hydrochloride]
24 | 1.9 | Cl.Nc1cc(F)c(-c2c(F)cccc2F)nc1C(=O)Nc1cncnc1OC1CCNC1 (centres unmarked) [Example 24, 3-amino-6-(2,6-difluorophenyl)-5-fluoro-N-(4-(pyrrolidin-3-yloxy)pyrimidin-5-yl)picolinamide hydrochloride]
25 | 3.1 | Cl.Nc1cc(F)c(-c2c(F)cccc2F)nc1C(=O)Nc1cncnc1OC1CCNCC1 [Example 25, 3-amino-6-(2,6-difluorophenyl)-5-fluoro-N-(4-(piperidin-4-yloxy)pyrimidin-5-yl)picolinamide hydrochloride]
26 | 4.0 | Cl.Nc1cc(F)c(-c2c(F)cccc2F)nc1C(=O)Nc1cncnc1OC1CCCNCC1 (centres unmarked) [Example 26, 3-amino-N-(4-(azepan-4-yloxy)pyrimidin-5-yl)-6-(2,6-difluorophenyl)-5-fluoropicolinamide hydrochloride]
27 | 4.4 | Cl.Nc1cc(F)c(-c2c(F)cccc2F)nc1C(=O)Nc1cncnc1OC1CCC(N)CC1 (centres unmarked) [Example 27, 3-amino-N-(4-(((1r,4r)-4-aminocyclohexyl)oxy)pyrimidin-5-yl)-6-(2,6-difluorophenyl)-5-fluoropicolinamide hydrochloride]
28 | 2.3 | Cl.Nc1cc(F)c(-c2c(F)cccc2F)nc1C(=O)Nc1cncnc1OCC1CCNC1 (centres unmarked) [Example 28]
29 | 1.8 | NCC(CCl)Oc1ncncc1NC(=O)c1ccc(F)c(-c2c(F)cccc2F)n1 (centres unmarked) [Example 29, N-(4-((1-amino-3-chloropropan-2-yl)oxy)pyrimidin-5-yl)-6-(2,6-difluorophenyl)-5-fluoropicolinamide hydrochloride]
30 | 1.5 | Cl.NCC(CCl)COc1ncncc1NC(=O)c1ccc(F)c(-c2c(F)cccc2F)n1 (centres unmarked) [Example 30, N-(4-(3-amino-2-(chloromethyl)propoxy)pyrimidin-5-yl)-6-(2,6-difluorophenyl)-5-fluoropicolinamide hydrochloride]
31 | 1.0 | Cl.Nc1cc(F)c(-c2c(F)cccc2F)nc1C(=O)Nc1cncnc1OC1CNC1 [Example 31, 3-amino-N-(4-(azetidin-3-yloxy)pyrimidin-5-yl)-6-(2,6-difluorophenyl)-5-fluoropicolinamide hydrochloride]
32 | 1.0 | Cl.Nc1cc(F)c(-c2c(F)cccc2F)nc1C(=O)Nc1cncnc1OCC1CNC1 [Example 32, 3-amino-N-(4-(azetidin-3-ylmethoxy)pyrimidin-5-yl)-6-(2,6-difluorophenyl)-5-fluoropicolinamide hydrochloride]
